Results as given in PMC4499255, “Monitoring Conformational Changes in the NDM-1 Metallo-β-lactamase by ^19F NMR Spectroscopy” (Angewandte Chemie (International Ed. in English), 2014).
Like-named read-outs stand apart in the source and are kept apart here.

What was measured:
[1] = molecular target: NDM-1* (BFA-labeled M67C NDM-1) (Klebsiella pneumoniae, UniProt C7C422, M67C); type: biochemical; conditions: labeled NDM-1*; for Km: substrate affinity
Procedure: (§1) buffer was prepared freshly prior to the reaction.
Kinetic and inhibition analyses were performed as described1. K measurements were performed
(§2) nM NDM-1* for nitrocefin measurements. […]

[2] = molecular target: T1, NDM-1 (Klebsiella pneumoniae, UniProt C7C422); conditions: unlabeled NDM-1; cited from earlier work
[3] = molecular target: T1, NDM-1
[4] = molecular target: di-ZnII-NDM-1* (BFA-labeled M67C NDM-1) (Klebsiella pneumoniae, UniProt C7C422, M67C); test: 19F NMR ligand titration / binding assay
Procedure: To calculate the molar fraction of protein–ligand complex, Equation (1) was used: [drawing 1] (1) where [P0] is the total protein concentration and [L0] is the total ligand concentration titrated into solution. […]
as §1
Kinetic and inhibition analyses were performed as described1. K measurements were performed […]
as §2
with rf field of 3.125 kHz.
768 scans and a recovery delay of 1s. Data were processed with 3 Hz Lorentzian line broadening […]
Trifluoroacetic acid (TFA, 50 µM) […]
was used as an internal standard. All inhibitor incubations were compared to appropriate NDM-1* […]
A DMSO titration curve was used for reference
Metal binding experiments

[5] = tested on: C[C@@H](O)[C@H]1C(=O)N2C(C(=O)O)=C(S[C@@H]3CN[C@H](C(=O)N(C)C)C3)[C@H](C)[C@H]12; test: purified protein, by the assay type; conditions: other: unlabeled NDM-1; substrate affinity; 25.0 °C
Procedure: We then investigated the kinetic properties of NDM-1* compared to unlabeled NDM-1.
using 0.5 nM NDM-1 and 1 nM NDM-1* for meropenem measurements and 0.25 nM NDM-1 and 2

NDM-1* (BFA-labeled M67C NDM-1), sequence (C7C422 37-270 M67C): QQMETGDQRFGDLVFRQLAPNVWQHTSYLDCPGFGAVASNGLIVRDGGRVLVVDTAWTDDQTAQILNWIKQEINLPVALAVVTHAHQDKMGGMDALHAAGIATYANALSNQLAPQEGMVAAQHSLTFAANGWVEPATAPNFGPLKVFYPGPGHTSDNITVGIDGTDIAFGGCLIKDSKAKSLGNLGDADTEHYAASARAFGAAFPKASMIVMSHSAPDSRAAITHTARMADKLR
T1 sequence (C7C422 37-270 limits assumed): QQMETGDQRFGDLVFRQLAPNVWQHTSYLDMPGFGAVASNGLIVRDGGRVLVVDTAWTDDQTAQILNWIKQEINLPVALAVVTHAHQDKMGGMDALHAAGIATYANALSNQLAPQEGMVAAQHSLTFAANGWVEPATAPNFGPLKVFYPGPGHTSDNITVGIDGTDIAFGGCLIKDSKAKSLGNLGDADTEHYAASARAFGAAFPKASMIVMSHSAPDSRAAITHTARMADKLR
di-ZnII-NDM-1* (BFA-labeled M67C NDM-1), sequence (C7C422 37-270 M67C): as the sequence (C7C422 37-270 M67C) above

With `C[C@@H](O)[C@H]1C(=O)N2C(C(=O)O)=C(S[C@@H]3CN[C@H](C(=O)N(C)C)C3)[C@H](C)[C@H]12` [Meropenem] the kcat [1] was 67.8 ± 4.3 s⁻¹ and the Km [1] was 54.8 ± 9.4 µM.
In the case of `O=C(Cc1cccs1)N[C@@H]1C(=O)N2C(C(=O)O)=C(/C=C/c3ccc([N+](=O)[O-])cc3[N+](=O)[O-])CS[C@H]12` [Nitrocefin], the kcat [1] is listed as 22.9 ± 0.6 s⁻¹, the Km [1] is listed as 6.2 ± 0.7 µM and the kcat [2] is listed as 25.3±1.6^[a] s^−1.
For `C[C@H]1[C@H](NC(=O)/C(=N\OC(C)(C)C(=O)O)c2csc(N)n2)C(=O)N1S(=O)(=O)O` [aztreonam], the “reported inhibition of NDM-1” value ([3]; ref 9b; cited from earlier work) is given as “not to inhibit NDM-1” and the “19F chemical shift change upon addition of ligand (binding)” value ([4]; ligand 2.5 mM) is given as “no ^19F chemical shift change was observed”.
For `O=C(N[C@@H](Cc1c[nH]c2ccccc12)C(=O)O)c1nc(Cl)c2ccccc2c1O` [compound 3, (S)-2-(1-chloro-4-hydroxyisoquinoline-3-carboxamido)-3-(1H-indol-3-yl)propanoic acid], the IC50 ([3]; read-out: reported IC50; NDM-1; cited from earlier work) is listed as 61 µM and the Kd [4] is listed as 131 µM.
In the case of `O=C(N[C@H](Cc1c[nH]c2ccccc12)C(=O)O)c1nc(Cl)c2ccccc2c1O` [compound 4, (R)-2-(1-chloro-4-hydroxyisoquinoline-3-carboxamido)-3-(1H-indol-3-yl)propanoic acid], the IC50 ([3]; NDM-1; read-out: reported IC50; cited from earlier work) is listed as 47 µM.
For NDM-1 (Klebsiella pneumoniae), the Km [5] was 76.6 ± 4.4 µM and the kcat [5] was 235 ± 5.6 s⁻¹.
